The results in this text go back to ChEMBL document CHEMBL1201862, “PubChem BioAssay data set” (2004).

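These data come from cells grown in 96-well plates and exposed to compound for 48 hours at five concentrations. GI50 = concentration required for 50% inhibition of growth.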 Calls of active or inactive are those of the source. Rule as the data show it: active = GI50 up to about 1.1 µM and inactive = higher.

Assay in all cases: NCI anticancer screen, dose series, 48 h
Test [1] concerns A549.
Test [2] concerns HL-60.
For test [3], the system named is HOP-92.
In test [4] the test system is HT-29.
Test [5] deals with IGROV-1.
Test [6] deals with K562.
Test [7] deals with M14.
In test [8] the test system is Malme-3M.
For test [9], the system named is OVCAR-4.
The test system of test [10] is OVCAR-8.
In test [11] the test system is PC-3.
Test [12] has as its system SF-268.
Test [13] relates to SF-295.
Test [14] relates to SK-OV-3.
In test [15] the test system is SNB-75.
The test system of test [16] is T47D.
Test [17] relates to CAKI-1.
Test [18] relates to RXF 393.
Test [19] relates to SF-539.

For `Clc1ccc2nc3c(c(-c4ccccc4)nn3-c3ccccc3)c(-c3ccccc3)c2c1`, the GI50 in [1], in test [2], in [3], in test [4], in test [5] and in test [6] was > 100 µM (inactive) in each case. Also, the GI50 in [7], in [8], in test [9], in test [10], in test [11] and in test [12] was > 100 µM (inactive) each time. Moreover, the GI50 in [13], in test [14], in test [15] and in test [16] was > 100 µM (inactive) throughout.
For the compound `N=C(N)SC(c1ccccc1)c1ccccc1`, the GI50 in test [1] is 25.2 µM (inactive); in test [17] it was 13.5 µM (inactive); in [2], 17.1 µM (inactive); in test [3], 6.87 µM (inactive); in [4], 13.3 µM (inactive); in [5], 18.5 µM (inactive). Further, the GI50 in test [6] was 22.4 µM (inactive); in [7], 11.4 µM (inactive); in test [8], 18.6 µM (inactive); in [9], 18.3 µM (inactive); in test [10], 15.3 µM (inactive); in test [11], 14.3 µM (inactive). The GI50 in test [18] is 6.52 µM (inactive); in test [12], 22.6 µM (inactive); in test [13], 16.9 µM (inactive); in [19], 20.8 µM (inactive); in test [14] it was 32.3 µM (inactive); in test [16], 6.32 µM (inactive).
On to `Cc1nc2ccccc2c(=O)n1NC(=O)c1ccccc1[N+](=O)[O-]`, for which the GI50 in test [1], in [2], in test [3], in [4], in [5] and in test [6] was > 100 µM (inactive) each time. For the same compound, the GI50 was > 100 µM (inactive) in test [7]; > 100 µM (inactive) in [8]; > 100 µM (inactive) in [9]; > 10 µM (inactive) in [10]; > 100 µM (inactive) in test [11]; > 10 µM (inactive) in [18]. For the same compound, the GI50 in test [12] was > 100 µM (inactive); in test [13], > 100 µM (inactive); in [19] it was > 100 µM (inactive); in [14], > 100 µM (inactive); in test [15], 81.5 µM (inactive); in [16] it was > 100 µM (inactive).
Regarding `CC[C@]1(Cc2ccc(OC)c(OC)c2)C=[N+]([O-])O[C@H](OC2CCCC2(c2ccccc2)c2ccccc2)[C@@H]1OC(C)=O` (some centres not stated), the GI50 in test [1] was 3.54 µM (inactive); in test [17], 2.95 µM (inactive); in test [2], 3.36 µM (inactive); in test [3] it was 3.21 µM (inactive); in test [4], 1.98 µM (inactive); in [5], 2.08 µM (inactive). The GI50 in test [6] was 2.98 µM (inactive); in test [7], 4.59 µM (inactive); in test [8] it was 2.03 µM (inactive); in test [9] it was 4.84 µM (inactive); in test [10], 2.67 µM (inactive); in test [11], 4.66 µM (inactive). Further, the GI50 was 1.52 µM (inactive) in test [18]; 4.76 µM (inactive) in test [12]; 4.92 µM (inactive) in test [13]; 14.5 µM (inactive) in test [14]; 2.82 µM (inactive) in test [15]; 2.96 µM (inactive) in test [16].
On to `CCOC(=O)c1c(N)sc2c1C(C(=O)OCC)CC2` (configuration not stated), for which the GI50 was > 100 µM (inactive) in [1]; 31.5 µM (inactive) in test [2]; > 100 µM (inactive) in test [3]; > 100 µM (inactive) in test [4]; 44.7 µM (inactive) in [5]; 46.5 µM (inactive) in test [6]. Further, the GI50 in test [7] is > 100 µM (inactive); in test [8], 74.1 µM (inactive); in test [10], > 100 µM (inactive); in test [11] it was 34.4 µM (inactive); in [18] it was > 100 µM (inactive); in test [15], 79.3 µM (inactive). Moreover, the GI50 in [16] was 18.2 µM (inactive).
With `CCC(C)c1cnc(CC(C)C)c(=O)[nH]1` (configuration not stated), the GI50 in [1], in [17], in test [3], in test [4], in [5] and in test [6] was > 100 µM (inactive) each time. Besides, the GI50 in test [7], in [9], in test [10], in test [11], in test [18] and in test [12] was > 100 µM (inactive) each time. Moreover, the GI50 in test [13], in test [14], in test [15] and in test [16] was > 100 µM (inactive) throughout.
Turning to `O=c1c2cccnc2[nH]c2ccc3scnc3c12`, the GI50 in test [1] is 3.96 µM (inactive); in test [17], > 10 µM (inactive); in test [2], 4.86 µM (inactive); in test [3] it was 8.17 µM (inactive); in test [4], 4.72 µM (inactive); in [5] it was 4.81 µM (inactive). Also, the GI50 is 8.07 µM (inactive) in [7]; > 10 µM (inactive) in test [8]; 9.35 µM (inactive) in test [9]; > 10 µM (inactive) in test [10]; > 10 µM (inactive) in test [11]; 3.11 µM (inactive) in [18]. Also, the GI50 in [12] was > 10 µM (inactive); in [13], > 10 µM (inactive); in test [19], 6.95 µM (inactive); in [14], > 10 µM (inactive); in test [15] it was 6.31 µM (inactive); in test [16], > 10 µM (inactive).
Turning to `CN(C)CCCOc1nc2c(c(=O)n(C)c(=O)n2C)n1C.SC1=NC=NC2=NC=NC12`, the GI50 in test [1] is 22 µM (inactive); in [17] it was 1.02 µM (active); in test [3] it was > 100 µM (inactive); in [4] it was 5.2 µM (inactive); in [5], 5.93 µM (inactive); in test [6], 1.14 µM (inactive). The GI50 in test [7] is 8.38 µM (inactive); in test [8], 0.634 µM (active); in test [9], 2.25 µM (inactive); in test [10], 22.2 µM (inactive); in [11] it was 8.53 µM (inactive); in test [18], > 100 µM (inactive). In addition, the GI50 in test [12] is 6.31 µM (inactive); in [13], 2.22 µM (inactive); in test [19] it was 1.7 µM (inactive); in [14], 23.9 µM (inactive); in test [15], 6.12 µM (inactive); in test [16], 68.9 µM (inactive).
With `C/C(=N\Nc1nc2ccccc2s1)c1ccncn1`, the GI50 was 2.22 µM (inactive) in test [1]; 0.145 µM (active) in test [17]; 0.817 µM (active) in test [3]; 0.0311 µM (active) in test [4]; 0.485 µM (active) in [5]; 0.973 µM (active) in test [6]. Further, the GI50 in test [7] is 0.51 µM (active); in test [8] it was 0.705 µM (active); in [9], 2.52 µM (inactive); in test [10] it was 0.286 µM (active); in test [11] it was 2.06 µM (inactive); in [18] it was 7.74 µM (inactive). Besides, the GI50 in test [12] is 0.603 µM (active); in test [13], 3.31 µM (inactive); in test [19], 1.39 µM (inactive); in test [14] it was 1.74 µM (inactive); in test [15], 4.1 µM (inactive); in test [16], 0.612 µM (active).
Turning to `Cc1ccc(C(=O)Nc2ccc(CP(=O)(O)O)cc2CP(=O)(O)O)cc1NC(=O)c1cccc(N)c1`, the GI50 in test [1], in [17], in test [2], in test [4], in test [5] and in test [6] was > 100 µM (inactive) each time. The GI50 in [7], in test [8], in [9], in test [10], in [11] and in test [18] was > 100 µM (inactive) each time. Moreover, the GI50 in test [12], in [13], in [19], in [14], in [15] and in test [16] was > 100 µM (inactive) each time.
Regarding `COc1ccc2c(c1)C(=O)CC(N)C2` (configuration not stated), the GI50 in test [1] was > 100 µM (inactive); in test [17], > 100 µM (inactive); in [2] it was 62.7 µM (inactive); in [3] it was > 100 µM (inactive); in [4] it was > 100 µM (inactive); in test [5] it was > 100 µM (inactive). The GI50 is > 100 µM (inactive) in test [6]; > 100 µM (inactive) in [7]; > 100 µM (inactive) in test [8]; > 100 µM (inactive) in test [9]; > 100 µM (inactive) in test [10]; 42 µM (inactive) in test [11]. Further, the GI50 was > 100 µM (inactive) in test [18]; > 100 µM (inactive) in [12]; > 100 µM (inactive) in [13]; > 100 µM (inactive) in [14]; 25.1 µM (inactive) in test [15]; > 100 µM (inactive) in [16].
In the case of `C/C=C/C(C#N)(/C=C/c1ccccc1)OP1(=O)OC(c2ccccc2)C(C)N1C` (configuration not stated), the GI50 in test [1] was 20 µM (inactive); in [17], 23.3 µM (inactive); in test [2] it was 12.6 µM (inactive); in test [3] it was 14.6 µM (inactive); in test [4] it was 19.7 µM (inactive); in [5] it was 16.4 µM (inactive). In addition, the GI50 is 16.4 µM (inactive) in test [6]; 20 µM (inactive) in test [7]; 18.9 µM (inactive) in test [8]; 17.9 µM (inactive) in test [10]; 17 µM (inactive) in [11]; 20.7 µM (inactive) in [18]. The GI50 in [12] was 19.6 µM (inactive); in test [13], 16.3 µM (inactive); in test [19], 17.8 µM (inactive); in test [14], 25.8 µM (inactive); in test [15] it was 20.5 µM (inactive); in test [16], 20.7 µM (inactive).
